From patent US6916843B1, “Anti-inflammatory actions of cytochrome P450 expoxygenase-derived eicosanoids” (The United States of America as represented by the …, priority 1999, dated 2005)
“Also recorded” adds a separate entry of the source. Ends that are not written are not given here.

Columns and labels:
[1] = test system: bovine aortic endothelial cells (BAECs); assay: Hypoxia-reoxygenation-induced cell injury in BAECs (cell number, LDH release, trypan blue); type: cell-based; details: for hypoxia-reoxygenation-induced cell injury, epoxide hydrolase inhibitors: DCU 10 μmol/L and elaidamide 10 μmol/L added together prior to hypoxia
Method: Effects of P450-derived arachidonic acid metabolites on hypoxia-reoxygenalion-induced injury in BAECs. BAECs, either untransfected, or 48 hours after transfection with pcDNA3.1/GFP or pcDNA3.1/CYP2J2, or 10 min after treatment with eicosanoids, epoxide hydrolase inhibitors or vehicle, were exposed to hypoxia (95% nitrogen plus 5% carbon dioxide) for 24 hours, followed by reoxygenation (95% air plus 5% carbon dioxide) for 4 hours using an environmental chamber within a 37° C. incubator. Cells maintained under continuous (28 hours) normoxic conditions served as controls.
EETs were prepared by total chemical synthesis as previously described (Corey el al., 102 J. Am. Chem. Soc. 1433-1435 (1980), Falck et al., 23 Tetrahedron Lett. 1755-1756 (1982)). DHETs were prepared by chemical hydration of EETs as described by Capdevila et al., 187 Methods Enzymol. 386-394 (1990). Synthetic EETs and DHETs were purified by reverse-phase HPLC prior to use. BAECs, grown to ˜85% confluency, were treated with either synthetic [11,12]-EET, [11,12]-DHET, or [14,15]-EET in ethanol vehicle (1 μmol/L each, final concentration) for 10 min prior to exposure to hypoxia-reoxygenation. […] Cells treated with vehicle alone served as controls.
After hypoxia-reoxygenation, the cell number was determined using a hemocytometer and the degree of cell injury was assessed by measuring lactate dehydrogenase release into the culture medium using the CytoTox 96 Non-Radioactive Cytotoxicity Assay Kit (Promega, Madison, Wis.) and by counting the number of trypan blue dye stained cells. Data are expressed as a percentage of values obtained from control cells maintained under normoxic conditions.

IκB kinase (IKK) = assay: IKK activity assay with GST-IκB-α substrate, TNF-α-stimulated endothelial cells; type: biochemical, human; details: 100 nM, TNF-α 10 ng/ml, 15 min
Method: A set of gel shift assays was performed. […] In some assays, [11,12]-EET (100 nM) was also added directly to the IKK assay (in vitro). As a control for nonspecific phosphorylation, the assay was performed without the addition of immunoprecipitated IKK (no enzyme) or in the presence of a IκB-α mutant (ΔSer 32, Ser 36→Thr) as substrate. The assay was performed three times with similar results.
Specificity of IKB was determined by the complete absence of phosphorylation when the mutated IκB-α substrate, GST-1κB-α (Δ32,36: S→T) which cannot be phosphorylated at serine residues 32 and 36, was substituted for wild-type GST-IκB-α.

VCAM-1 expression = assay: Cell-surface enzyme immunoassay of cytokine-induced VCAM-1 expression in endothelial cells; type: cell-based, human; details: KCa channel blocker 100 nM
Method: (§1) FIG. 2 is a set of bar graphs of cell-surface enzyme immunoassays. […] The difference between treatment with TNF-α alone and in the presence of [11,12]-EET were statistically significant (*p<0.05, **p<0.01), OD, optical density. […] After stimulation with TNF-α (10 ng/ml) in the presence or absence of EET, promoter activity was determined relative to basal activity. *p<0.01 vs. TNF-α alone.
To determine the biological effects of EETs, we treated tumor necrosis factor alpha (TNF-α)-stimulated human endothelial cells with physiological relevant concentrations (1-100 nM) of [5,6]-EET, [8,9]-EET, [11,12]-EET, [14,15]-EET, [11,12]-DHET.

VCAM-1 promoter = VCAM-1 promoter construct activity in transiently transfected bovine aortic endothelial cells; type: cell-based; details: 100 μM
Description: To localize cis-acting elements in the VCAM-1 promoter that might mediate the inhibitory effects of [11,12]-EET, we transiently transfected bovine aortic endothelial cells with a -755 bp VCAM-1 promoter construct (DeCaterina et al., 96 J. Clin. Invest. 60 (1995)). Stimulation with TNF-α induced a 13-fold increase in relative VCAM-1 promoter activity that was abolished by cotreatment with [11,12]-EET. […] To confirm that the tandem κB sites in the VCAM-1 promoter are repressed by [11,12]-EET we subcloned them into a heterologous promoter construct containing the SV40 enhancer linked to the luciferase reporter gene (pκB.Luc). Stimulation of transfected endothelial cells with TNF-α induced a 6-fold increase in pκB.Luc promoter activity that was abolished by co-treatment with [11,12]-EET, but not [14,15]-EET (FIG. 2C). […] Compared to transfection with the empty pcDNA3.1 vector, overexpression of CYP2J2 decreased TNF-induced VCAM-1 and pκB.Luc promoter activity by 70-80% which were reversed in the presence of SK[…] (FIG. 2C). Neither transfection with CYP2J2 cDNA alone nor treatment with SK[…] alone affected basal promoter activity.

NF-κB = NF-κB heterologous promoter (pκB.Luc) luciferase reporter in bovine endothelial cells; type: cell-based; details: 100 μM
Method: as §1
To localize cis-acting elements in the VCAM-1 promoter that might mediate the inhibitory effects of [11,12]-EET, we transiently transfected bovine aortic endothelial cells with a −755 bp VCAM-1 promoter construct (DeCaterina et al., 96 J. Clin. Invest. 60 (1995)). Stimulation with TNF-α induced a 13-fold increase in relative VCAM-1 promoter activity that was abolished by cotreatment with [11,12]-EET. […] To confirm that the tandem κB sites in the VCAM-1 promoter are repressed by [11,12]-EET we subcloned them into a heterologous promoter construct containing the SV40 enhancer linked to the luciferase reporter gene (pκB.Luc). Stimulation of transfected endothelial cells with TNF-α induced a 6-fold increase in pκB.Luc promoter activity that was abolished by co-treatment with [11,12]-EET, but not [14,15]-EET (FIG. 2C). […] Compared to transfection with the empty pcDNA3.1 vector, overexpression of CYP2J2 decreased TNF-induced VCAM-1 and pκB.Luc promoter activity by 70-80% which were reversed in the presence of SKF525A (FIG. 2C). Neither transfection with CYP2J2 cDNA alone nor treatment with SKF525A alone affected basal promoter activity.

CYP2J2 = biological target: T1, CYP2J2 (Homo sapiens, UniProt P51589); assay: Arachidonic acid epoxygenase metabolite formation in CYP2J2-transfected bovine aortic endothelial cells (HPLC)
T1 construct: The CYP2J2 cDNA (1.9 kb) or GFP cDNA (0.75 kb) were subcloned into the plasmid pcDNA3.1; expressed in transfected cells; host or cells: bovine aortic endothelial cells (BAECs), transient transfection with pcDNA3.1/CYP2J2
T1 sequence (P51589 1-502): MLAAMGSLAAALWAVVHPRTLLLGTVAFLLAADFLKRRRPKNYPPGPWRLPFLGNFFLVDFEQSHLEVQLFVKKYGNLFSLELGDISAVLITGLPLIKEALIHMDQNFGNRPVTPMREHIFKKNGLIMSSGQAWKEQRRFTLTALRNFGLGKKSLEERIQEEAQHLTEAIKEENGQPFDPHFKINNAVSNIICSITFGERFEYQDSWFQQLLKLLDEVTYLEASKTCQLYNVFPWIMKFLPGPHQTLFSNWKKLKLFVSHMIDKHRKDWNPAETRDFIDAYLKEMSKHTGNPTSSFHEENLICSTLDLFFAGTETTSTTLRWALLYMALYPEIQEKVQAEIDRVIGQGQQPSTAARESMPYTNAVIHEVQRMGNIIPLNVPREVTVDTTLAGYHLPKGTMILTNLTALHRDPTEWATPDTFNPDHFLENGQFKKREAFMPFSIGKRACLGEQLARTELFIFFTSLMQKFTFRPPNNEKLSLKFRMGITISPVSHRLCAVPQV
Method: To study the formation of EETs by CYP2J2 in endothelial cells, we measured EET synthesis from bovine endothelial cells transfected with CYP2J2 cDNA. Early passage bovine aortic endothelial cells were grown to 60-70% confluence and transfected with either pcDNA3.1 or pcDNA3.1/CYP2J2 using Fugene™ 6 reagent (Boehringer Mannheim Corp.) according to the manufacturer's instructions. Using this method, the transfection efficiency was 10-20%. Forty-eight hours post-transfection, cells were washed twice with phosphate-buffered saline and incubated with freshly purified [^3H]arachidonic acid (185 Ci/mmol, 4-5 μCi/175 mm^2 flask) and unlabeled arachidonic acid (10 μM) was added before addition of arachidonic acid. At various time points, the media and cells were removed and extracted with diethyl ether. The combined organic phases were dried under a nitrogen stream, resolved by reverse-phase high performance liquid chromatography (HPLC) and quantified by liquid scintillation as described by Wu et al., 271 J. Biol. Chem. 3460 (1996). […]
These control GFP-transfected cells metabolized radiolabeled arachidonic acid to epoxygenase metabolites (EETs and DHETs) at a rate of ˜8 pmol/min/10^7 cells (FIG. 6). Endothelial cell arachidonic acid metabolism was determined as follows: Forty-eight hours after transfection with either pcDNA3.1/GFP or pcDNA3.1/CYP2J2, BAECs were incubated with freshly purified [5, 6, 8, 9, 11, 12, 14, 15-^3H]arachidonic acid (185 Ci/mmol, 4-5 μCi/175-mm^2 flask) in serurm-free culture medium at 37° C. for 30-120 min. […] The BAECs and culture medium were then collected and the reaction products extracted into ethyl ether, dried under a nitrogen stream, analyzed by reverse-phase HPLC, and quantified by on-line liquid scintillation using a Radiomatic Flo-One β detector (Radiomatic Instruments, Tampa, Fla.) as described (Wu et al., 271 J. Biol. Chem. 12551 (1996), Node et al., 285 Science 1276-1279 (1999)). […]

CCCCCCCC/C=C/CCCCCCCC(N)=O [elaidamide, reference compound]
hypoxia-reoxygenation-induced cell injury, epoxide hydrolase inhibitors [1]: limits; also recorded: significantly attenuates

CCCCC/C=C\C/C=C\C/C=C\CC1OC1CCCC(=O)O (stereo not drawn) [[5,6]-EET]
inhibition of TNF-α-induced IKK activity (IκB kinase (IKK)): to a lesser extent

O=C(NC1CCCCC1)NC1CCCCC1 [DCU, dicyclohexylurea, reference compound]
hypoxia-reoxygenation-induced cell injury, epoxide hydrolase inhibitors [1]: significantly attenuates
hypoxia-reoxygenation-induced cell injury, epoxide hydrolase inhibitors ([1]; listed as dicyclohexylurea): limits

iberiotoxin (QFTDVDCSVSKECWSVCKDLFGVDRGKCMGKKCRCYQ; not fully specified (residue 1, bridges); cysteine pairing not given here; UniProt P24663 1-37, looked up) [reference compound]
block of the inhibitory effect of [11,12]-EET on TNF-α-induced VCAM-1 expression (VCAM-1 expression): did not block

charybodotoxin [reference compound]
block of the inhibitory effect of [11,12]-EET on TNF-α-induced VCAM-1 expression (VCAM-1 expression): did not block

CCCCC/C=C\C/C=C\CC1OC1C/C=C\CCCC(=O)O (stereo not drawn) [[8,9]-EET]
inhibition of TNF-α-induced IKK activity (IκB kinase (IKK)): to a lesser extent

CCCC(C(=O)OCCN(CC)CC)(c1ccccc1)c1ccccc1 [SKF525A, reference compound]
reversal of CYP2J2-mediated decrease of VCAM-1 promoter activity (VCAM-1 promoter): reversed
reversal of CYP2J2-mediated decrease of pκB.Luc promoter activity (NF-κB): reversed
inhibition of increased epoxygenase activity of CYP2J2-transfected BAECs (CYP2J2; 100 μmol/L): inhibited
inhibition of formation of epoxygenase metabolites by CYP2J2 transfected cells (CYP2J2; inhibitor 100 μM): > 80%

CCCCC/C=C\CC(O)C(O)C/C=C\C/C=C\CCCC(=O)O (stereo not drawn) [[11,12]-DHET]
hypoxia-reoxygenation-induced cell injury, number of trypan blue stained cells ([1]; 1 μmol/L, added 10 min prior to hypoxia (24 h hypoxia, 4 h reoxygenation)): active in attenuating; also recorded: significantly attenuates
